Assay results published in patent US9061981B2, “Diphenyl substituted cyclohexane derivatives, useful as modulators of the estrogen receptors beta” (Acadia Pharmaceuticals Inc., priority 2011, dated 2015).

Tests used:
[1] = test system: bilateral 6-hydroxydopamine (6OHDA) lesion of the substantia nigra; test: Bilateral 6OHDA lesion of the substantia nigra, behavioral assessment; format: in vivo, Male rats; details: for prepulse inhibition (sensorimotor gating): 6OHDA rats, once daily 7 days sc, 10 mg/kg (estradiol 100 μg/kg); for motor performance (spontaneous locomotor activity, rotorod, challenging beam) / novel object recognition (cognition): rat, in vivo; for novel object recognition (cognition): sc, 10 mg/kg
Protocol: (§1) Male rats received baseline assessment of weight, motor function (spontaneous locomotor behavior, rotorod performance) and sensorimotor gating (prepulse inhibition). Subjects were assigned to treatment conditions to equalize performance on all these measures. Subjects were then treated once daily for 7 days with either sesame oil vehicle, estradiol (100 μg/kg sc), Comparative substance 131 (10 mg/kg sc), Compound 8 (10 mg/kg sc), Comparative substance 623 (10 mg/kg sc) or Comparative substance 957 (10 mg/kg sc). On the second day of treatment, subjects received bilateral sham or 6OHDA lesions (8 μg in 4 μl) of the substantia nigra (A/P−5.0 mm, M/L±1.6 mm, D/V−8.2 mm) following the atlas of Paxinos and Watson (Paxinos, G., Watson, C., The Rat Brain in Stereotaxic Coordinates, Fourth Edition, New York: Academic Press, Spiral Bound, 1998). Behavioral assessments of motor function (spontaneous locomotion, rotorod and traversing a challenging beam), cognition (novel object recognition) and sensorimotor gating (prepulse inhibition) began after the final day of treatment. Following behavioral assessment, SN and striatal tissue were collected in order to determine the intactness of the nigrostriatal dopamine system.

[2] = target: T1, ERβ (Homo sapiens, UniProt Q92731); test: R-SAT functional assay, ERβ; format: cell-based; set-up: expressed in transfected cells; host or cells: transient transfection
[3] = target: T1, ERβ; test: Competitive 3H-estradiol binding assay, ERβ; set-up: expressed in transfected cells; host or cells: HEK293 cells, transient transfection
Protocol: (§2) Cells were then harvested by scraping in ice-cold PBS and subsequently lysed using a cold buffer containing 10 mM Tris pH 7.4, 1 mM EDTA, 1 mM DTT before being subjected to polytron twice for 10 seconds. Cytosolic extracts were isolated by centrifugation at 15000 g for 30 minutes at 4° C. Competitive binding of the test compounds or the estradiol control was performed on 20 μL extract by overnight incubation at 4° C. in a total volume of 100 μL containing 1 nM ^3H-estradiol (Perkin Elmer, Boston, Mass.). The bound fraction was separated from the unbound one by the addition of 100 μL of Dextran coated charcoal, incubated for 10 minutes and subsequent centrifugation at 1000 rpm for 10 minutes. Samples (100 μL per sample) were then analyzed by liquid scintillation. Data was then analyzed using the curve fitting software GraphPad Prism.

[4] = target: T1, ERβ; test: Luciferase reporter gene assay (3*ERE) in HEK293 cells, ERβ; format: cell-based; set-up: expressed in transfected cells; host or cells: HEK293 cells, transient transfection; details: for Emax: HEK293, 48 h, read-out: Luciferase Erβ % Eff
Protocol: HEK293 cells were grown to 70% confluency in DMEM containing 10% calf serum (Hyclone) prior to transfection. On the day of transfection (day 1), expression vectors for ERα or ERβ were cotransfected along a construct containing a synthetic 3*ERE upstream of the luciferase gene (Panomics), using Polyfect (Qiagen) per manufacturer's recommendations (ERE being estrogen response element). Sixteen hours post-transfection, cells were incubated in serum free DMEM. […] Cells extracts were then obtained by lyzing and the Luciferase activity measured, all of these steps performed using a commercially available kit (Promega).

[5] = Non-specific binding assessment across tissue-free inserts; format: in vitro ADME; details: tissue-free insert, DPBS; for recovery at 120 min, 1 μM: tissue-free Millipore Millicell culture plate inserts; for Papp at 120 min, 1 μM: read-out: apparent permeability coefficient (Papp) through cell-free insert
Protocol: Non-specific binding assessment (NSB) was conducted in a tissue-free plate containing Millipore Millicell culture plate inserts that were the same ones that were used in the permeation study across the culture tissues. Each of the tested compounds was dosed at 1 μM with DPBS buffer. Sampling time for the receiver chambers was 120 minutes after dosing, while the donor sides were sampled at 0 and 120 minutes after dosing. The NSB assessments consisted of the permeation rates across tissue-free inserts and the percent recovery by calculating the mass balance of the test campounds at the end of the experiment. The recovery assessment was used to assess the non-specific binding property of the tested compounds to the assay apparatus.

[6] = test system: nigrostriatal dopamine neurons; test: Tyrosine hydroxylase immunofluorescence in SN and STR after 6OHDA lesion; format: in vivo, Male rats; details: 6OHDA rats, once daily 7 days sc; 10 mg/kg (estradiol 100 μg/kg)
Protocol: as §1
Comparative compound 131 and Compound 8 were compared with estradiol for their ability to protect nigrostriatal dopamine neurons as measured by tyrosine hydroxylase (TH) immunohistochemistry in the SN and striatum (STR).

[7] = target: T2, ERα (Homo sapiens, UniProt P03372); test: Competitive 3H-estradiol binding assay, ERα; details: 1 nM 3H-estradiol, HEK293T cytosolic extract; read-out: Binding ERα pKi (converted)
T2 sequence (P03372 1-595): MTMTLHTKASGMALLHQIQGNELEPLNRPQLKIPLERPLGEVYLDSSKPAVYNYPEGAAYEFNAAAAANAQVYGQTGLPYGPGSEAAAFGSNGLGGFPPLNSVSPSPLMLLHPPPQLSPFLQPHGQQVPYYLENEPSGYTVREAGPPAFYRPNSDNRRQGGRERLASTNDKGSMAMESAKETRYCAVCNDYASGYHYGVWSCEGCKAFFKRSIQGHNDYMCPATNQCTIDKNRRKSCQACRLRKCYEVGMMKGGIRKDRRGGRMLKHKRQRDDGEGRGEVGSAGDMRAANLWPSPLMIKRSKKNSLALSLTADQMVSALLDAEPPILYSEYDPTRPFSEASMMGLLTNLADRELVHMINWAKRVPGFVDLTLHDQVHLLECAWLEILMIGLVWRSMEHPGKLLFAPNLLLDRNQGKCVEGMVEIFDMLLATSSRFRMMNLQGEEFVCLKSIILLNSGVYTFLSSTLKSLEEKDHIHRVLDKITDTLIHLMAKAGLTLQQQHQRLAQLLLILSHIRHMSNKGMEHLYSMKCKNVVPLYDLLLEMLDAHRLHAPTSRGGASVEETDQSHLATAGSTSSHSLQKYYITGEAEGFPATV
Protocol: as §2, with “HEK293T cells were transiently transfected for 48 hours with expression vectors encoding ERα or ERβ, before being serum starved for 4-6 hours. Cells” for “Cells”

T1 sequence (Q92731 whole entry, species assumed): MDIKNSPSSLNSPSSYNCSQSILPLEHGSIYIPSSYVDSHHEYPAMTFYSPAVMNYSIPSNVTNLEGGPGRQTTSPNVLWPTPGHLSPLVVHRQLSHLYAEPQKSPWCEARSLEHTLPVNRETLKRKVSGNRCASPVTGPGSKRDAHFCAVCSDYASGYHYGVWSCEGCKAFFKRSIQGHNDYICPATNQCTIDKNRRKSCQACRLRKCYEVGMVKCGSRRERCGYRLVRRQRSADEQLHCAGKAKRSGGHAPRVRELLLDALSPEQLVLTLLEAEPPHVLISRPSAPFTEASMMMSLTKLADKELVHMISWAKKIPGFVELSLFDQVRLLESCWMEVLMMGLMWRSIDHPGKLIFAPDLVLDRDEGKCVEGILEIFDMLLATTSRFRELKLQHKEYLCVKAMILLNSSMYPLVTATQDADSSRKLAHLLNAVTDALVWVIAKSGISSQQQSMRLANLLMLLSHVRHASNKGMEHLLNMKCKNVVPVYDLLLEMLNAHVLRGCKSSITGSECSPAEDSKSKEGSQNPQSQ

With `Oc1ccc(C2(c3ccccc3F)CCC(F)(F)CC2)cc1` [Compound 8, 4-(4,4-Difluoro-1-(2-fluorophenyl)cyclohexyl)phenol] the “prepulse inhibition (sensorimotor gating)” value (from here on “prepulse inhibition”) [1] was “prevented the 6OHDA-induced deficit in PPI”, the “motor performance (spontaneous locomotor activity, rotorod, challenging beam)” value (“motor performance” below) [1] was “prevented the impairment” and the “novel object recognition (cognition)” value [1] was “showed improved memory”. For the same compound, the EC50 [2] was 1.26 nM, the Ki [3] was 6.31 nM and the EC50 [4] was 0.631 nM. The Emax [4] was 96%, the recovery at 120 min, 1 μM [5] was 57% and the Papp at 120 min, 1 μM [5] was 19.8 ×10⁻⁶ cm/s. The “percent immunopositive and mean pixel intensity of TH immunofluorescence in the STR” value [6] was “increase in percentage of the image that was immunopositive and increased mean pixel intensity”, the “percent immunopositive, mean cell size and mean pixel intensity of TH immunofluorescence in the SN” value (“percent immunopositive … in the SN” for short) [6] was “improved percent immunopositive, mean cell size and mean pixel intensity” and the “tyrosine hydroxylase positive cell number in the SN” value [6] was “prevented the reduction in cell number”. The Ki [7] was 79.4 nM.

In the case of `Oc1ccc(C2(c3cccc(F)c3Cl)CCCCC2)cc1` [Compound 623], the “prepulse inhibition” value [1] is reported as “prevented the 6OHDA-induced deficit in PPI”, the “motor performance” value [1] is reported as “prevented the impairment” and the “novel object recognition (cognition)” value [1] is reported as “showed improved memory”. It also gave an EC50 [2] of 6.31 nM, a Ki [3] of 6.31 nM and an EC50 [4] of 5.01 nM. The Emax [4] was 99%, the recovery at 120 min, 1 μM [5] was 22% and the Papp at 120 min, 1 μM [5] was 1.17 ×10⁻⁶ cm/s. The “percent immunopositive … in the SN” value [6] was “improved percent immunopositive, mean cell size and mean pixel intensity”, the “tyrosine hydroxylase positive cell number in the SN” value [6] was “prevented the reduction in cell number” and the Ki [7] was 794 nM.

In the case of `Oc1ccc(C2(c3ccccc3Cl)CCCCC2)cc1F` [Compound 957], the “prepulse inhibition” value [1] is reported as “prevented the 6OHDA-induced deficit in PPI”, the “motor performance” value [1] is reported as “prevented the impairment” and the “novel object recognition (cognition)” value [1] is reported as “did not reverse the cognitive deficit”. For the same compound, the EC50 [2] was 1.58 nM, the Ki [3] was 15.8 nM and the EC50 [4] was 1.26 nM. For the same compound, the Emax [4] was 62%, the recovery at 120 min, 1 μM [5] was 18% and the Papp at 120 min, 1 μM [5] was 0.881 ×10⁻⁶ cm/s. For the same compound, the “percent immunopositive … in the SN” value [6] was “improved percent immunopositive, mean cell size and mean pixel intensity”, the “tyrosine hydroxylase positive cell number in the SN” value [6] was “prevented the reduction in cell number” and the Ki [7] was 200 nM.
